Results: patent publication US9469650B2, “Melampomagnolide B derivatives” (BOARD OF TRUSTEES OF THE UNIVERSITY OF ARKANSAS, priority 2013, dated 2016)

Assays:
NCI-H322M = assay: panel of 60 human tumor cell lines, growth inhibition (Non-Small Cell Lung Cancer)
UACC-257 = assay: panel of 60 human tumor cell lines, growth inhibition (Melanoma); details: UACC-257
CCRF-CEM = assay: panel of 60 human tumor cell lines, growth inhibition (Leukemia)
MDA-MB-435 = assay: panel of 60 human tumor cell lines, growth inhibition (Melanoma); details: MDA-MB-435
OVCAR-5 = assay: panel of 60 human tumor cell lines, growth inhibition (Ovarian Cancer); details: OVCAR-5
KM12 = assay: panel of 60 human tumor cell lines, growth inhibition (Colon Cancer); details: KM12
HOP-92 = assay: panel of 60 human tumor cell lines, growth inhibition (Non-Small Cell Lung Cancer); details: HOP-92
SF-268 = assay: panel of 60 human tumor cell lines, growth inhibition (CNS Cancer); details: SF-268
COLO 205 = assay: panel of 60 human tumor cell lines, growth inhibition (Colon Cancer); details: COLO 205

SMILES: C=C1C(=O)O[C@H]2[C@H]1CC/C(COC(=O)N1CCN(C)CC1)=C\CC[C@@]1(C)O[C@@H]21 [JVM 2-44]
- GI50 (NCI-H322M): 16.2 µM
- TGI (NCI-H322M): 5.44E−5
- Mean Optical Densities (NCI-H322M; Log10 Concentration −4.0): 0.569
- Percent Growth (NCI-H322M; Log10 Concentration −4.0): −25%
- Mean Optical Densities (NCI-H322M; Log10 Concentration −5.0): 1.434
- Percent Growth (NCI-H322M; Log10 Concentration −5.0): 70%
- Mean Optical Densities (NCI-H322M; Log10 Concentration −6.0): 1.650
- Percent Growth (NCI-H322M; Log10 Concentration −6.0): 93%
- Mean Optical Densities (NCI-H322M; Log10 Concentration −7.0): 1.624
- Percent Growth (NCI-H322M; Log10 Concentration −7.0): 91%
- Mean Optical Densities (NCI-H322M; Log10 Concentration −8.0): 1.649
- Percent Growth (NCI-H322M; Log10 Concentration −8.0): 93%
- GI50 (UACC-257): 9.93 µM
- TGI (UACC-257): 2.32E−5
- Mean Optical Densities (UACC-257; Log10 Concentration −4.0): 0.150
- Percent Growth (UACC-257; Log10 Concentration −4.0): −86%
- Mean Optical Densities (UACC-257; Log10 Concentration −5.0): 1.662
- Percent Growth (UACC-257; Log10 Concentration −5.0): 50%
- Mean Optical Densities (UACC-257; Log10 Concentration −6.0): 2.046
- Percent Growth (UACC-257; Log10 Concentration −6.0): 84%
- Mean Optical Densities (UACC-257; Log10 Concentration −7.0): 2.135
- Percent Growth (UACC-257; Log10 Concentration −7.0): 92%
- Mean Optical Densities (UACC-257; Log10 Concentration −8.0): 2.160
- Percent Growth (UACC-257; Log10 Concentration −8.0): 94%
- GI50 (CCRF-CEM): 3.06 µM
- TGI (CCRF-CEM): 1.84E−5
- Mean Optical Densities (CCRF-CEM; Log10 Concentration −4.0): 0.393
- Percent Growth (CCRF-CEM; Log10 Concentration −4.0): −25%
- Mean Optical Densities (CCRF-CEM; Log10 Concentration −5.0): 0.689
- Percent Growth (CCRF-CEM; Log10 Concentration −5.0): 9%
- Mean Optical Densities (CCRF-CEM; Log10 Concentration −6.0): 2.185
- Percent Growth (CCRF-CEM; Log10 Concentration −6.0): 89%
- Mean Optical Densities (CCRF-CEM; Log10 Concentration −7.0): 2.250
- Percent Growth (CCRF-CEM; Log10 Concentration −7.0): 92%
- Mean Optical Densities (CCRF-CEM; Log10 Concentration −8.0): 2.265
- Percent Growth (CCRF-CEM; Log10 Concentration −8.0): 93%
- GI50 (MDA-MB-435): 7.64 µM
- TGI (MDA-MB-435): 2.27E−5
- Mean Optical Densities (MDA-MB-435; Log10 Concentration −4.0): 0.109
- Percent Growth (MDA-MB-435; Log10 Concentration −4.0): −80%
- Mean Optical Densities (MDA-MB-435; Log10 Concentration −5.0): 1.343
- Percent Growth (MDA-MB-435; Log10 Concentration −5.0): 44%
- Mean Optical Densities (MDA-MB-435; Log10 Concentration −6.0): 2.253
- Percent Growth (MDA-MB-435; Log10 Concentration −6.0): 94%
- Mean Optical Densities (MDA-MB-435; Log10 Concentration −7.0): 2.240
- Percent Growth (MDA-MB-435; Log10 Concentration −7.0): 93%
- Mean Optical Densities (MDA-MB-435; Log10 Concentration −8.0): 2.396
- Percent Growth (MDA-MB-435; Log10 Concentration −8.0): 102%
- GI50 (OVCAR-5): 13.4 µM
- TGI (OVCAR-5): 3.03E−5
- Mean Optical Densities (OVCAR-5; Log10 Concentration −4.0): 0.201
- Percent Growth (OVCAR-5; Log10 Concentration −4.0): −73%
- Mean Optical Densities (OVCAR-5; Log10 Concentration −5.0): 1.240
- Percent Growth (OVCAR-5; Log10 Concentration −5.0): 68%
- Mean Optical Densities (OVCAR-5; Log10 Concentration −6.0): 1.400
- Percent Growth (OVCAR-5; Log10 Concentration −6.0): 89%
- Mean Optical Densities (OVCAR-5; Log10 Concentration −7.0): 1.404
- Percent Growth (OVCAR-5; Log10 Concentration −7.0): 90%
- Mean Optical Densities (OVCAR-5; Log10 Concentration −8.0): 1.415
- Percent Growth (OVCAR-5; Log10 Concentration −8.0): 91%
- GI50 (KM12): 14.2 µM
- TGI (KM12): 3.13E−5
- Mean Optical Densities (KM12; Log10 Concentration −4.0): 0.105
- Percent Growth (KM12; Log10 Concentration −4.0): −74%
- Mean Optical Densities (KM12; Log10 Concentration −5.0): 1.680
- Percent Growth (KM12; Log10 Concentration −5.0): 72%
- Mean Optical Densities (KM12; Log10 Concentration −6.0): 2.184
- Percent Growth (KM12; Log10 Concentration −6.0): 101%
- Mean Optical Densities (KM12; Log10 Concentration −7.0): 2.151
- Percent Growth (KM12; Log10 Concentration −7.0): 99%
- Mean Optical Densities (KM12; Log10 Concentration −8.0): 2.117
- Percent Growth (KM12; Log10 Concentration −8.0): 97%
- GI50 (HOP-92): 2.95 µM
- TGI (HOP-92): 1.48E−5
- Mean Optical Densities (HOP-92; Log10 Concentration −4.0): 0.116
- Percent Growth (HOP-92; Log10 Concentration −4.0): −87%
- Mean Optical Densities (HOP-92; Log10 Concentration −5.0): 0.995
- Percent Growth (HOP-92; Log10 Concentration −5.0): 18%
- Mean Optical Densities (HOP-92; Log10 Concentration −6.0): 1.307
- Percent Growth (HOP-92; Log10 Concentration −6.0): 79%
- Mean Optical Densities (HOP-92; Log10 Concentration −7.0): 1.345
- Percent Growth (HOP-92; Log10 Concentration −7.0): 86%
- Mean Optical Densities (HOP-92; Log10 Concentration −8.0): 1.394
- Percent Growth (HOP-92; Log10 Concentration −8.0): 95%
- GI50 (SF-268): 13.5 µM
- TGI (SF-268): 3.19E−5
- Mean Optical Densities (SF-268; Log10 Concentration −4.0): 0.188
- Percent Growth (SF-268; Log10 Concentration −4.0): −66%
- Mean Optical Densities (SF-268; Log10 Concentration −5.0): 1.432
- Percent Growth (SF-268; Log10 Concentration −5.0): 67%
- Mean Optical Densities (SF-268; Log10 Concentration −6.0): 1.625
- Percent Growth (SF-268; Log10 Concentration −6.0): 97%
- Mean Optical Densities (SF-268; Log10 Concentration −7.0): 1.839
- Percent Growth (SF-268; Log10 Concentration −7.0): 9B
- Mean Optical Densities (SF-268; Log10 Concentration −8.0): 1.843
- Percent Growth (SF-268; Log10 Concentration −8.0): 99%
- GI50 (COLO 205): 4.44 µM
- TGI (COLO 205): 1.76E−5
- Mean Optical Densities (COLO 205; Log10 Concentration −4.0): 0.159
- Percent Growth (COLO 205; Log10 Concentration −4.0): −67%
- Mean Optical Densities (COLO 205; Log10 Concentration −5.0): 0.767
- Percent Growth (COLO 205; Log10 Concentration −5.0): 22%
- Mean Optical Densities (COLO 205; Log10 Concentration −6.0): 1.790
- Percent Growth (COLO 205; Log10 Concentration −6.0): 101%
- Mean Optical Densities (COLO 205; Log10 Concentration −7.0): 1.715
- Percent Growth (COLO 205; Log10 Concentration −7.0): 95%
- Mean Optical Densities (COLO 205; Log10 Concentration −8.0): 1.784
- Percent Growth (COLO 205; Log10 Concentration −8.0): 100%
